Consider 20 molecules from patent US20240368150A1 (Hoffmann-La Roche Inc., priority 2021, published 2024).

Assay [1] relates to primary human T-cells. The assay can be described thus: Proliferation assay after 5 days (CellTiter-Glo, CD3 stimulation; PBS counter screen). In kind it is cell-based. The conditions noted are these: CD3 stimulation; for Emax: read-out: Emax proliferation (% activation); for EC50: primary human T-cells, CellTiter-Glo after 5 days, EC50 of fitted sigmoidal curve, read-out: Tcell Proliferation CD3 EC50. The method, boiled down: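 ATP-based luminescence (CellTiter-Glo 2.0, room temperature) measured proliferation 5 days after compound addition to CD3-stimulated or unstimulated primary human T-cells. Flags marked compounds that lowered viability or activated unstimulated cells.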

Assay [2] concerns primary human T-cells.
Where [3] appears, read: Homo sapiens, T-cell, 120 h, 5 days, normalized to reference compound A1 as stimulator control = 100%, DMSO neutral control.

Where two headings read alike, the source gives them in different places.

Turning to `CNC(C)(C)c1nnc(-c2ccc3c(c2)N(Cc2ccc(OC(F)(F)F)cc2)C(=O)[C@@H](N)CS3(=O)=O)o1` [Example 419, (3R)-3-amino-7-[5-[1-methyl-1-(methylamino)ethyl]-1,3,4-oxadiazol-2-yl]-1,1-dioxo-5-[[4-(trifluoromethoxy)phenyl]methyl]-2,3-dihydro-1λ^6,5-benzothiazepin-4-one], the Emax in the assay with primary human T-cells [1] (setting [3]) was found to be 62%. In addition, the EC50 with primary human T-cells [1] (Homo sapiens, T-cell, 120 h) is 7270 nM; in the assay on primary human T-cells [2] it was 1510 nM.

Turning to `CN1CCCC(C)(c2nnc(-c3cc4c(cc3F)S(=O)(=O)C[C@H](N)C(=O)N4Cc3ccc(Cl)cc3)o2)C1` (stereo partly drawn) [Example 145, (3R)-3-amino-5-[(4-chlorophenyl)methyl]-7-[5-(1,3-dimethyl-3-piperidyl)-1,3,4-oxadiazol-2-yl]-8-fluoro-1,1-dioxo-2,3-dihydro-1λ^6,5-benzothiazepin-4-one], the Emax in the assay on primary human T-cells [1] (setting [3]) was 107%. For the same molecule, the EC50 stood at 428 nM with primary human T-cells [1] (Homo sapiens, T-cell, 120 h) and 404 nM in the assay with primary human T-cells [2].

For the molecule `N[C@H]1CS(=O)(=O)c2cc(F)c(-c3nnc(NC4CC(C(F)(F)F)C4)o3)cc2N(Cc2ccc(Cl)cc2)C1=O` (stereo partly drawn) [Example 504, (3R)-3-amino-5-[(4-chlorophenyl)methyl]-8-fluoro-1,1-dioxo-7-[5-[[3-(trifluoromethyl)cyclobutyl]amino]-1,3,4-oxadiazol-2-yl]-2,3-dihydro-1λ^6,5-benzothiazepin-4-one], the Emax in the assay with primary human T-cells [1] (setting [3]) was 103%. The EC50 in the assay with primary human T-cells [1] (Homo sapiens, T-cell, 120 h) came out at 1110 nM; in the assay with primary human T-cells [2] it was 1230 nM.

Consider `CC(C)(C)c1nnc(-c2cc3c(cc2F)S(=O)(=O)C[C@H](N)C(=O)N3Cc2ccc(Cl)nn2)o1` [Example 251, (3R)-3-amino-7-(5-tert-butyl-1,3,4-oxadiazol-2-yl)-5-[(6-chloropyridazin-3-yl)methyl]-8-fluoro-1,1-dioxo-2,3-dihydro-1λ^6,5-benzothiazepin-4-one], for which the Emax in the assay on primary human T-cells [1] (setting [3]) was determined as 66%. In addition, the EC50 in the assay on primary human T-cells [1] (Homo sapiens, T-cell, 120 h) was 5300 nM; in the assay with primary human T-cells [2], above 10000 nM.

Consider `Cc1nnc(-c2nnc(-c3cc4c(cc3F)S(=O)(=O)C[C@H](N)C(=O)N4Cc3ccc(OC(F)(F)F)cc3)o2)o1` [Example 60, (3R)-3-amino-8-fluoro-7-[5-(5-methyl-1,3,4-oxadiazol-2-yl)-1,3,4-oxadiazol-2-yl]-1,1-dioxo-5-[[4-(trifluoromethoxy)phenyl]methyl]-2,3-dihydro-1λ^6,5-benzothiazepin-4-one], for which the Emax in the assay on primary human T-cells [1] (setting [3]) was 110%. Further, the EC50 in the assay with primary human T-cells [1] (Homo sapiens, T-cell, 120 h) came to 320 nM; in the assay with primary human T-cells [2] it was 535 nM.

For `CN1CC[C@@H](n2nnc(-c3cc4c(cc3F)S(=O)(=O)C[C@H](N)C(=O)N4Cc3ccc(Cl)cc3)n2)C1` [Example 10, (3R)-3-amino-5-[(4-chlorophenyl)methyl]-8-fluoro-1,1-dioxo-7-[2-[(3R)-1-methylpyrrolidin-3-yl]tetrazol-5-yl]-2,3-dihydro-1λ^6,5-benzothiazepin-4-one], in the assay on primary human T-cells [1] (setting [3]), the Emax worked out at 78%. Further, the EC50 in the assay with primary human T-cells [1] (Homo sapiens, T-cell, 120 h) stood at 4040 nM; in the assay with primary human T-cells [2], 3100 nM.

On to `N[C@H]1CS(=O)(=O)c2ccc(-c3nc(CC(F)(F)F)no3)nc2N(Cc2ccc(Cl)cc2)C1=O` [Example 39, (3R)-3-amino-5-[(4-chlorophenyl)methyl]-1,1-dioxo-7-[3-(2,2,2-trifluoroethyl)-1,2,4-oxadiazol-5-yl]-2,3-dihydropyrido[3,2-b][1,4]thiazepin-4-one], for which the Emax in the assay on primary human T-cells [1] (setting [3]) is 161%. In addition, the EC50 was 486 nM in the assay on primary human T-cells [1] (Homo sapiens, T-cell, 120 h) and 842 nM in the assay on primary human T-cells [2].

`COC(=O)N1CC(c2nnc(-c3cc4c(cc3F)S(=O)(=O)C[C@H](N)C(=O)N4Cc3ccc(Cl)cc3)o2)C1` [Example 172, methyl 3-[5-[(3R)-3-amino-5-[(4-chlorophenyl)methyl]-8-fluoro-1,1,4-trioxo-2,3-dihydro-1λ^6,5-benzothiazepin-7-yl]-1,3,4-oxadiazol-2-yl]azetidine-1-carboxylate]: the Emax with primary human T-cells [1] (setting [3]) was 190%. The EC50 was found to be 2940 nM with primary human T-cells [1] (Homo sapiens, T-cell, 120 h) and 1670 nM in the assay on primary human T-cells [2].

For the molecule `N[C@H]1CS(=O)(=O)c2cc(F)c(-c3nnc(N4CC5COCC(C4)C5(F)F)o3)cc2N(Cc2ccc(Cl)cc2)C1=O` [Example 476, (3R)-3-amino-5-[(4-chlorophenyl)methyl]-7-[5-(9,9-difluoro-3-oxa-7-azabicyclo[3.3.1]nonan-7-yl)-1,3,4-oxadiazol-2-yl]-8-fluoro-1,1-dioxo-2,3-dihydro-1λ^6,5-benzothiazepin-4-one], the Emax in the assay on primary human T-cells [1] (setting [3]) worked out at 95%. Moreover, the EC50 in the assay on primary human T-cells [1] (Homo sapiens, T-cell, 120 h) worked out at 455 nM; in the assay on primary human T-cells [2], 8680 nM.

Take `CN1CC(n2nnc(-c3cc4c(cc3F)S(=O)(=O)C[C@H](N)C(=O)N4Cc3ccccc3)n2)CC(F)(F)C1` (stereo partly drawn) [Example 22, (3R)-3-amino-5-benzyl-7-[2-(5,5-difluoro-1-methyl-3-piperidyl)tetrazol-5-yl]-8-fluoro-1,1-dioxo-2,3-dihydro-1λ^6,5-benzothiazepin-4-one]: the Emax with primary human T-cells [1] (setting [3]) was determined as 74%. Moreover, the EC50 in the assay with primary human T-cells [1] (Homo sapiens, T-cell, 120 h) was above 10000 nM; in the assay on primary human T-cells [2], above 10000 nM.

As for `CS(=O)(=O)N1CC2CC2(c2nnc(-c3cc4c(cc3F)S(=O)(=O)C[C@H](N)C(=O)N4Cc3ccc(Cl)cc3)o2)C1` (stereo partly drawn) [Example 181, (3R)-3-amino-5-[(4-chlorophenyl)methyl]-8-fluoro-7-[5-(3-methylsulfonyl-3-azabicyclo[3.1.0]hexan-1-yl)-1,3,4-oxadiazol-2-yl]-1,1-dioxo-2,3-dihydro--benzothiazepin-4-one], the Emax in the assay with primary human T-cells [1] (setting [3]) was found to be 107%. Further, the EC50 in the assay with primary human T-cells [1] (Homo sapiens, T-cell, 120 h) turned out to be 7830 nM; in the assay with primary human T-cells [2], 1990 nM.

For the molecule `CC(C)(C)c1nnc(-c2cc3c(cc2F)S(=O)(=O)C[C@H](NC(=O)CCCN)C(=O)N3Cc2ccc(Cl)cc2)o1` [Example 267, 4-amino-N-[(3R)-7-(5-tert-butyl-1,3,4-oxadiazol-2-yl)-5-[(4-chlorophenyl)methyl]-8-fluoro-1,1,4-trioxo-2,3-dihydro-1λ^6,5-benzothiazepin-3-yl]butanamide], in the assay with primary human T-cells [1] (setting [3]), the Emax worked out at 74%. In addition, the EC50 amounted to 3070 nM with primary human T-cells [1] (Homo sapiens, T-cell, 120 h) and 5440 nM in the assay with primary human T-cells [2].

On to `CC(C)(C)c1nnc(-c2ccc3c(c2)N(Cc2ccc(N4CCCC4)cc2)C(=O)[C@@H](N)CS3(=O)=O)o1` [Example 448, (3R)-3-amino-7-(5-tert-butyl-1,3,4-oxadiazol-2-yl)-1,1-dioxo-5-[(4-pyrrolidin-1-ylphenyl)methyl]-2,3-dihydro-1λ^6.5-benzothiazepin-4-one], for which the Emax in the assay on primary human T-cells [1] (setting [3]) amounted to 94%. The EC50 in the assay on primary human T-cells [1] (Homo sapiens, T-cell, 120 h) worked out at 1960 nM; in the assay on primary human T-cells [2], 4620 nM.

In the case of `COC(=O)N1CCCC(c2nnc(-c3cc4c(cc3F)S(=O)(=O)C[C@H](N)C(=O)N4Cc3ccc(Cl)cc3)o2)C1` (stereo partly drawn) [Example 165, methyl 3-[5-[(3R)-3-amino-5-[(4-chlorophenyl)methyl]-8-fluoro-1,1,4-trioxo-2,3-dihydro-1λ^6,5-benzothiazepin-7-yl]-1,3,4-oxadiazol-2-yl]piperidine-1-carboxylate], the Emax in the assay on primary human T-cells [1] (setting [3]) came to 85%. For the same molecule, the EC50 was found to be 309 nM in the assay with primary human T-cells [1] (Homo sapiens, T-cell, 120 h) and 458 nM in the assay with primary human T-cells [2].

Regarding `Cc1nc(-c2nnc(-c3cc4c(cc3F)S(=O)(=O)C[C@H](N)C(=O)N4Cc3ccc(Cl)cc3)o2)no1` [Example 109, (3R)-3-amino-5-[(4-chlorophenyl)methyl]-8-fluoro-7-[5-(5-methyl-1,2,4-oxadiazol-3-yl)-1,3,4-oxadiazol-2-yl]-1,1-dioxo-2,3-dihydro-1λ^6,5-benzothiazepin-4-one], in the assay with primary human T-cells [1] (setting [3]), the Emax stood at 86%. Further, the EC50 with primary human T-cells [1] (Homo sapiens, T-cell, 120 h) was found to be 1740 nM; in the assay with primary human T-cells [2], 1500 nM.

On to `CC(=O)N1CC2CC(c3nnc(-c4cc5c(cc4F)S(=O)(=O)C[C@H](N)C(=O)N5Cc4ccc(Cl)cc4)o3)(C2)C1` [Example 173, (3R)-7-[5-(3-acetyl-3-azabicyclo[3.1.1]heptan-1-yl)-1,3,4-oxadiazol-2-yl]-3-amino-5-1[(4-chlorophenyl)methyl]-8-fluoro-1,1-dioxo-2,3-dihydro-1λ^6,5-benzothiazepin-4-one], for which the Emax in the assay with primary human T-cells [1] (setting [3]) was determined as 89%. Moreover, the EC50 in the assay with primary human T-cells [1] (Homo sapiens, T-cell, 120 h) was found to be 596 nM; in the assay on primary human T-cells [2] it was 2180 nM.

Take `N[C@H]1CS(=O)(=O)c2cc(F)c(-c3nnc(N4CCC(F)(F)C(CO)C4)o3)cc2N(Cc2ccc(Cl)cc2)C1=O` (stereo partly drawn) [Example 485, (3R)-3-amino-5-[(4-chlorophenyl)methyl]-7-[5-[4,4-difluoro-3-(hydroxymethyl)-1-piperidyl]-1,3,4-oxadiazol-2-yl]-8-fluoro-1,1-dioxo-2,3-dihydro-1λ^6,5-benzothiazepin-4-one]: in the assay with primary human T-cells [1] (setting [3]), the Emax turned out to be 98%. Besides, the EC50 with primary human T-cells [1] (Homo sapiens, T-cell, 120 h) was 868 nM; in the assay with primary human T-cells [2] it was 8130 nM.

As to `CC(C)(CN1CCCCC1=O)c1nnc(-c2cc3c(cc2F)S(=O)(=O)C[C@H](N)C(=O)N3Cc2ccc(Cl)cc2)o1` [Example 66, (3R)-3-amino-5-[(4-chlorophenyl)methyl]-7-[5-[1,1-dimethyl-2-(2-oxo-1-piperidyl)ethyl]-1,3,4-oxadiazol-2-yl]-8-fluoro-1,1-dioxo-2,3-dihydro-1λ^6,5-benzothiazepin-4-one], the Emax with primary human T-cells [1] (setting [3]) turned out to be 112%. The EC50 with primary human T-cells [1] (Homo sapiens, T-cell, 120 h) is 2070 nM; with primary human T-cells [2], 1330 nM.

Regarding `CN=S1(=O)C[C@H](N)C(=O)N(Cc2ccc(OC(F)(F)F)cc2)c2cc(-c3nnc(C(C)(C)C)o3)c(F)cc21` (stereo partly drawn) [Example 519, (3R)-3-amino-7-(5-tert-butyl-1,3,4-oxadiazol-2-yl)-8-fluoro-1-methylimino-1-oxo-5-[[4-(trifluoromethoxy)phenyl]methyl]-2,3-dihydro-1λ^6,5-benzothiazepin-4-one], the Emax in the assay with primary human T-cells [1] (setting [3]) turned out to be 72%. Moreover, the EC50 with primary human T-cells [1] (Homo sapiens, T-cell, 120 h) turned out to be 4370 nM; with primary human T-cells [2] it was 5530 nM.

As to “(3R)-3-amino-5-[(4-chlorophenyl)methyl]-7-[5-(2,2-difluoromorpholin-4-yl)-1,3,4-oxadiazol-2-yl]-1,1-dioxo-2,3-dihydro-1λ^6,5-benzothiazepin-4-one [Example 413]”, the “Emax proliferation (% activation)” value in the assay on primary human T-cells [1] (5 days, normalized to reference compound A1 as stimulator control = 100%, DMSO neutral control) is reported as 160 % activation. The EC50 with primary human T-cells [1] is 193 nM; in the assay on primary human T-cells [2] it was 1080 nM.
